Laboratory results published in ChEMBL document CHEMBL1132780, “Synthesis and NK1/NK2 receptor activity of substituted-4(Z)-(methoxyimino)pentyl-1-piperazines” (Bioorg Med Chem Lett, 2000).
pKi: −log10 of the molar value.

Assays:
Substance-K receptor = molecular target: T1, Substance-K receptor (Homo sapiens, UniProt P21452); assay: Inhibitory activity against human tachykinin receptor 2
T1 sequence (P21452 whole entry): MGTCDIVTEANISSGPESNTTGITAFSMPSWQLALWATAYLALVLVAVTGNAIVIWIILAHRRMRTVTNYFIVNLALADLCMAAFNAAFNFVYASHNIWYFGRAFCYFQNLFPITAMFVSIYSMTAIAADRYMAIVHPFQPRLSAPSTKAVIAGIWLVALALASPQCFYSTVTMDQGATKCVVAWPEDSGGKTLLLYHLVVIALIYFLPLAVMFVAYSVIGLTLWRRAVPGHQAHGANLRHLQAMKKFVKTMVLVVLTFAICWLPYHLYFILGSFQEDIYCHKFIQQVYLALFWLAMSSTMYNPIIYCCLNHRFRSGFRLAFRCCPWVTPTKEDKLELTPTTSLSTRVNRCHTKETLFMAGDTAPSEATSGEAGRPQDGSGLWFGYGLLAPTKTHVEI

Substance-P receptor = Substance-P receptor (Homo sapiens, UniProt P25103); assay: Inhibitory activity against human tachykinin receptor 1
Sequence of Substance-P receptor (P25103 whole entry): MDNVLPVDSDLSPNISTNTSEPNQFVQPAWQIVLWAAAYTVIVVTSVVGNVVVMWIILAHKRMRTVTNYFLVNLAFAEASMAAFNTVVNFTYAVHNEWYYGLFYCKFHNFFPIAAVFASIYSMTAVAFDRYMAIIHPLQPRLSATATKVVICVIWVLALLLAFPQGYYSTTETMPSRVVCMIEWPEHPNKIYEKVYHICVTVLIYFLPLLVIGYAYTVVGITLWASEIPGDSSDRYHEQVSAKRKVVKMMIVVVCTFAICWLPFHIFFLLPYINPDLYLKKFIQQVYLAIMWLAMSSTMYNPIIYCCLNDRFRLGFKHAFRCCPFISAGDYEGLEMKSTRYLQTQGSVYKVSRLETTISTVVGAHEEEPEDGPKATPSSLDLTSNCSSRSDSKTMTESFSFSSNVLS

SMILES | pKi (Substance-K receptor) | pKi (Substance-P receptor)
CO/N=C(\COCc1cc(C(F)(F)F)cc(C(F)(F)F)c1)C(CCN1CCN(CC(=O)N2CCCCC2CO)CC1)c1ccc(Cl)c(Cl)c1 (configuration not stated) | 7.28 | 7.33
CO/N=C(\COCc1cc(C(F)(F)F)cc(C(F)(F)F)c1)C(CCN1CCN(c2ccccc2)CC1)c1ccc(Cl)c(Cl)c1 (configuration not stated) | 6.01 | 6.74
CO/N=C(\COCc1cc(C(F)(F)F)cc(C(F)(F)F)c1)C(CCN1CCN(CC(=O)Nc2ccccc2)CC1)c1ccc(Cl)c(Cl)c1 (configuration not stated) | < 6.17 | 6.90
CO/N=C(\COCc1cc(C(F)(F)F)cc(C(F)(F)F)c1)C(CCN1CCN(CC(=O)N2CCc3ccccc3C2)CC1)c1ccc(Cl)c(Cl)c1 (configuration not stated) | 6.25 | 6.90
CO/N=C(\COCc1cc(C(F)(F)F)cc(C(F)(F)F)c1)C(CCN1CCN(CC(=O)N2CCC(N(C)C)C2)CC1)c1ccc(Cl)c(Cl)c1 (configuration not stated) | 7.02 | 7.85
CO/N=C(\COCc1cc(C(F)(F)F)cc(C(F)(F)F)c1)C(CCN1CCN(CC(=O)N2CCCCC2)CC1)c1ccc(Cl)c(Cl)c1 (configuration not stated) | 6.68 | 7.09
CCOC(=O)C1CCN(C(=O)CN2CCN(CCC(/C(COCc3cc(C(F)(F)F)cc(C(F)(F)F)c3)=N/OC)c3ccc(Cl)c(Cl)c3)CC2)CC1 (configuration not stated) | 6.39 | 7.62
CO/N=C(\COCc1cc(C(F)(F)F)cc(C(F)(F)F)c1)C(CCN1CCN(CC(=O)N2CCCC(O)C2)CC1)c1ccc(Cl)c(Cl)c1 (configuration not stated) | 7.42 | 7.89
CO/N=C(\COCc1cc(C(F)(F)F)cc(C(F)(F)F)c1)C(CCN1CCN(CC(=O)N2CCC(O)C2)CC1)c1ccc(Cl)c(Cl)c1 (configuration not stated) | 7.52 | 7.80
CO/N=C(\COCc1cc(C(F)(F)F)cc(C(F)(F)F)c1)C(CCN1CCN(CC(=O)N2CC(O)C2)CC1)c1ccc(Cl)c(Cl)c1 (configuration not stated) | 7.51 | 7.66
CCOCCCNC(=O)CN1CCN(CCC(/C(COCc2cc(C(F)(F)F)cc(C(F)(F)F)c2)=N/OC)c2ccc(Cl)c(Cl)c2)CC1 (configuration not stated) | 6.42 | 7.41
CO/N=C(\COCc1cc(C(F)(F)F)cc(C(F)(F)F)c1)C(CCN1CCN(CC(=O)N(C(C)C)C(C)C)CC1)c1ccc(Cl)c(Cl)c1 (configuration not stated) | 6.77 | 7.09
CO/N=C(\COCc1cc(C(F)(F)F)cc(C(F)(F)F)c1)C(CCN1CCNCC1)c1ccc(Cl)c(Cl)c1 (configuration not stated) | 6.13 | 7.52
CO/N=C(\COCc1cc(C(F)(F)F)cc(C(F)(F)F)c1)C(CCN1CCN(CC(=O)N2CCCC3CCCCC32)CC1)c1ccc(Cl)c(Cl)c1 (configuration not stated) | 6.32 | 6.87
CO/N=C(\COCc1cc(C(F)(F)F)cc(C(F)(F)F)c1)C(CCN1CCN(CC(=O)N(C)C2CCCCC2)CC1)c1ccc(Cl)c(Cl)c1 (configuration not stated) | 6.43 | 6.95
CO/N=C(\COCc1cc(C(F)(F)F)cc(C(F)(F)F)c1)C(CCN1CCN(CC(=O)NC2CC2)CC1)c1ccc(Cl)c(Cl)c1 (configuration not stated) | 6.59 | 7.21
CO/N=C(\COCc1cc(C(F)(F)F)cc(C(F)(F)F)c1)C(CCN1CCN(CC(=O)N2CCC[C@H]2C(N)=O)CC1)c1ccc(Cl)c(Cl)c1 (some centres not stated) | 7.59 | 7.62

Further lines, results first:

pKi (Substance-K receptor) | pKi (Substance-P receptor) | SMILES
< 6.17 | 6.87 | CO/N=C(\COCc1cc(C(F)(F)F)cc(C(F)(F)F)c1)C(CCN1CCN(CC(=O)NC2CCc3ccccc32)CC1)c1ccc(Cl)c(Cl)c1 (configuration not stated)
6.66 | 7.15 | CO/N=C(\COCc1cc(C(F)(F)F)cc(C(F)(F)F)c1)C(CCN1CCN(c2ncccn2)CC1)c1ccc(Cl)c(Cl)c1 (configuration not stated)
7.32 | 8.05 | CO/N=C(\COCc1cc(C(F)(F)F)cc(C(F)(F)F)c1)C(CCN1CCN(CC(=O)N2CCC(NC(C)=O)C2)CC1)c1ccc(Cl)c(Cl)c1 (configuration not stated)
7.48 | 7.64 | CO/N=C(\COCc1cc(C(F)(F)F)cc(C(F)(F)F)c1)C(CCN1CCN(CC(=O)N2CCC2)CC1)c1ccc(Cl)c(Cl)c1 (configuration not stated)
6.70 | 7.21 | CO/N=C(\COCc1cc(C(F)(F)F)cc(C(F)(F)F)c1)C(CCN1CCN(C)CC1)c1ccc(Cl)c(Cl)c1 (configuration not stated)
7.68 | 7.85 | CO/N=C(\COCc1cc(C(F)(F)F)cc(C(F)(F)F)c1)C(CCN1CCN(CC(=O)N2CCCC2)CC1)c1ccc(Cl)c(Cl)c1 (configuration not stated)
7.55 | 7.72 | CO/N=C(\COCc1cc(C(F)(F)F)cc(C(F)(F)F)c1)C(CCN1CCN(CC(=O)N2CCOCC2)CC1)c1ccc(Cl)c(Cl)c1 (configuration not stated)
6.58 | 7.70 | CO/N=C(\COCc1cc(C(F)(F)F)cc(C(F)(F)F)c1)C(CCN1CCN(CC(=O)NCC2CCCO2)CC1)c1ccc(Cl)c(Cl)c1 (configuration not stated)
6.89 | 7.28 | CO/N=C(\COCc1cc(C(F)(F)F)cc(C(F)(F)F)c1)C(CCN1CCN(C2CCCCC2)CC1)c1ccc(Cl)c(Cl)c1 (configuration not stated)
